Source: US20060128792A1, “Deguelin as a chemopreventive agent for lung cancer” (priority 2002, published 2006)
Where “and” joins values, the source holds several entries; their conditions need not be identical. Equal entries are not always repeated.

Assays:
Format in all cases: cell-based
[1] = system: Cal6; assay: MTT assay, growth inhibition by deguelin or deguelin derivatives; conditions: 3 days
[2] = system: Cal1; assay: as above; conditions: 3 days
[3] = system: cell line not named (Table 1); assay: MTT assay, growth inhibition by deguelin; conditions: 3 days
[4] = system: A549; assay: MTT assay, growth inhibition by deguelin or deguelin derivatives; conditions: A549, 3 days
[5] = system: COX-2; assay: COX-1 and COX-2 expression by northern and western blotting; conditions: premalignant cells (1799, squamous HBE); 1 nM, 10 nM or 100 nM
Method: COX-2 on the other hand, is found to be induced and expressed in neoplastic growth. […] Thus, it was determined whether deguelin regulates the expression of COX-2 in lung cancer cells. Normal, premalignant, and malignant lung cancer cells, NHBE, 1799, 1198, and 1170, were treated with 1 nM, 10 nM, or 100 nM deguelin for 1 day and COX-1 and COX-2 expression were analyzed by northern blotting.
In this study, the protein and mRNA expression of COX-1 and COX-2 were tested in 1799 and squamous (Sq) HBE cells. These cells were treated with 1 nM, 10 nM, or 100 nM deguelin and the COX-1 and COX-2 RNA and analyzed by northern blotting and western blotting. Equal amount of mRNA in each lane was confirmed by northern blot analysis using GAPDH (data not shown).

[6] = system: 1799 cells; assay: Cell cycle analysis by flow cytometry (propidium iodide); conditions: 3 days
Method: (§1) Cell Cycle Analysis. Cells were plated on 10-cm dishes 1 day before treatment. After treatment with deguelin for 3 days, floating and adherent cells were harvested by trypsinization, fixed with 1% paraformaldehyde and 70% ethanol, stained with propidium iodide PI), and subjected to flow cytomnetric analysis to determine the percentages of cells in specific phases of the cell cycle (G1, S, and G2/M) as described previously (Sun et al., 1997).

[7] = system: NHBE cells; assay: as above; conditions: 3 days
Method: as §1

[8] = system: bax and bcl-2 in lung cancer cell lines; assay: Western blot of bax and bcl-2; conditions: 10^−7 M deguelin
Method: Immunoblotting. Whole cell lysates were prepared in lysis buffer (50 mM N-[2-[…]]-piperazine-N′-[2-ethanesulfonic acid] [HEPES; pH 7.5], 150 mM NaCl, 1.5 mM MgCl2, ImM EDTA, 0.2 mM EGTA, 1% NP40, 10% glycerol, 1 mM dithiothreitol (DTT), 1 mM phenylmethylsulfonyl fluoride, 20 mM sodium fluoride, 5 mM sodium orthovanadate, 10 μg/ml aprotinin, 10 μg/ml leupeptin, 2 μg/ml pepstatin, and 1 mM benzamidine) as described previously (Lee et al., 2002). Equivalent protein concentrations were resolved in sodium dodecyl sulfate-polyacrylamide gels and transferred to a nitrocellulose membrane. After the blocking of transblotted membrane in Tris-buffered saline (TBS) containing 0.05% Tween 20 (TBST) and 5% low fat milk, themembrane was incubated with primary antibody at the appropriate dilution in TBS-5% low-fat milk at 4° C. for 16 h and washed with TBST. The immunoblots were visualized using the ECL kit (Amersham, Inc., Arlington Heights, III) according to the manufacturer's directions. […]
The apoptotic effect of deguelin was further assessed in HBE cells. […] Apoptosis was analyzed by flow cytometry as described above. […] To confirm the apoptotic activity in these cells, bax and bcl-2 expression were analyzed by western blotting. […] Thus, it was determined that deguelin increases bax expression thereby inducing the apoptotic activity in lung cancer cells.

[9] = system: H441; assay: MTT assay, growth inhibition by deguelin or deguelin derivatives; conditions: 3 days

For COc1cc2c(cc1OC)[C@@H]1C(=O)c3ccc4c(c3O[C@@H]1CO2)C=CC(C)(C)O4 [Deguelin], the Avg. % con ([1]; deguelin 10^−6M) was 0.24 % con, the “MTT value, mean of replicates (unheaded line)” value (“MTT value, mean of replicates” below) ([1]; deguelin 10^−6M) was 0.094 and the “MTT value, replicate (unheaded line)” value ([1]; deguelin 10^−6M) was 0.098 and 0.106 and 0.078. The Avg. % con ([1]; deguelin 10^−8M) was 0.88 % con, the “MTT value, mean of replicates” value ([1]; deguelin 10^−8M) was 0.345 and the “MTT value, replicate (unheaded line)” value ([1]; deguelin 10^−8M) was 0.356 and 0.338 and 0.341. The Avg. % con ([1]; deguelin 10^−10M) was 0.93 % con, the “MTT value, mean of replicates” value ([1]; deguelin 10^−10M) was 0.364 and the “MTT value, replicate (unheaded line)” value ([1]; deguelin 10^−10M) was 0.332 and 0.386 and 0.374. The Avg. % con ([1]; deguelin 10^−12M) was 0.92 % con, the “MTT value, mean of replicates” value ([1]; deguelin 10^−12M) was 0.360 and the “MTT value, replicate (unheaded line)” value ([1]; deguelin 10^−12M) was 0.357 and 0.358 and 0.366. For the same molecule, the Avg. % con ([2]; deguelin 10^−6M) was 0.54 % con, the “MTT value, mean of replicates” value ([2]; deguelin 10^−6M) was 0.132 and the “MTT value, replicate (unheaded line)” value ([2]; deguelin 10^−6M) was 0.13 and 0.128 and 0.138. For the same molecule, the Avg. % con ([2]; deguelin 10^−8M) was 0.88 % con, the “MTT value, mean of replicates” value ([2]; deguelin 10^−8M) was 0.214 and the “MTT value, replicate (unheaded line)” value ([2]; deguelin 10^−8M) was 0.204 and 0.221 and 0.216. The Avg. % con ([2]; deguelin 10^−10M) was 1.16 % con, the “MTT value, mean of replicates” value ([2]; deguelin 10^−10M) was 0.281 and the “MTT value, replicate (unheaded line)” value ([2]; deguelin 10^−10M) was 0.29 and 0.294 and 0.26. The Avg. % con ([2]; deguelin 10^−12M) was 1.30 % con, the “MTT value, mean of replicates” value ([2]; deguelin 10^−12M) was 0.317 and the “MTT value, replicate (unheaded line)” value ([2]; deguelin 10^−12M) was 0.305 and 0.328 and 0.319. For the same molecule, the Avg. % con ([3]; deguelin 10^−6M) was 0.82 % con, the “MTT value, mean of replicates” value ([3]; deguelin 10^−6M) was 0.304 and the “MTT value, replicate (unheaded line)” value ([3]; deguelin 10^−6M) was 0.306 (2×) and 0.299 and 0.305. The Avg. % con ([3]; deguelin 10^−8M) was 0.78 % con, the “MTT value, mean of replicates” value ([3]; deguelin 10^−8M) was 0.2908 and the “MTT value, replicate (unheaded line)” value ([3]; deguelin 10^−8M) was 0.288 and 0.291 and 0.283 and 0.301. For the same molecule, the Avg. % con ([3]; deguelin 10^−10M) was 0.90 % con, the “MTT value, mean of replicates” value ([3]; deguelin 10^−10M) was 0.3348 and the “MTT value, replicate (unheaded line)” value ([3]; deguelin 10^−10M) was 0.337 and 0.327 and 0.343 and 0.332. The Avg. % con ([3]; deguelin 10^−12M) was 1.01 % con, the “MTT value, mean of replicates” value ([3]; deguelin 10^−12M) was 0.3768 and the “MTT value, replicate (unheaded line)” value ([3]; deguelin 10^−12M) was 0.392 and 0.386 and 0.367 and 0.362. The Avg. % con ([4]; deguelin 10^−6M) was 0.13 % con, the “MTT value, mean of replicates” value ([4]; deguelin 10^−6M) was 0.060 and the “MTT value, replicate (unheaded line)” value ([4]; deguelin 10^−6M) was 0.057 (2×) and 0.066. For the same molecule, the Avg. % con ([4]; deguelin 10^−8M) was 0.83 % con, the “MTT value, mean of replicates” value ([4]; deguelin 10^−8M) was 0.382 and the “MTT value, replicate (unheaded line)” value ([4]; deguelin 10^−8M) was 0.381 (2×) and 0.385. The Avg. % con ([4]; deguelin 10^−10M) was 0.88 % con, the “MTT value, mean of replicates” value ([4]; deguelin 10^−10M) was 0.408 and the “MTT value, replicate (unheaded line)” value ([4]; deguelin 10^−10M) was 0.375 and 0.422 and 0.427. For the same molecule, the Avg. % con ([4]; deguelin 10^−12M) was 0.89 % con, the “MTT value, mean of replicates” value ([4]; deguelin 10^−12M) was 0.411 and the “MTT value, replicate (unheaded line)” value ([4]; deguelin 10^−12M) was 0.416 and 0.404 and 0.412. The “induced COX-2 expression” value [5] was “downregulated”, the “1799 cells accumulated at the G2/M phase” value ([6]; 10^−7 M deguelin) was 40.2% and the “1799 cells accumulated at the G2/M phase” value ([6]; 10^−8 M deguelin) was 17.3%. The “change in NHBE cell cycle” value [7] was “did not induce detectable change”, the Bcl-2 expression [8] was “not found to be regulated” and the bax expression [8] was “Increased”. For the same molecule, the Avg. % con ([9]; deguelin 10^−6M) was 0.82 % con, the “MTT value, mean of replicates” value ([9]; deguelin 10^−6M) was 0.181 and the “MTT value, replicate (unheaded line)” value ([9]; deguelin 10^−6M) was 0.18 (2×) and 0.183. For the same molecule, the Avg. % con ([9]; deguelin 10^−8M) was 0.94 % con, the “MTT value, mean of replicates” value ([9]; deguelin 10^−8M) was 0.207 and the “MTT value, replicate (unheaded line)” value ([9]; deguelin 10^−8M) was 0.209 and 0.203 and 0.21. The Avg. % con ([9]; deguelin 10^−10M) was 1.01 % con, the “MTT value, mean of replicates” value ([9]; deguelin 10^−10M) was 0.223 and the “MTT value, replicate (unheaded line)” value ([9]; deguelin 10^−10M) was 0.21 and 0.231 and 0.229. The Avg. % con ([9]; deguelin 10^−12M) was 1.12 % con, the “MTT value, mean of replicates” value ([9]; deguelin 10^−12M) was 0.247 and the “MTT value, replicate (unheaded line)” value ([9]; deguelin 10^−12M) was 0.234 and 0.259 and 0.249.
